Laboratory results reported in US20080026417A1, “ASSAYS FOR TRICHOMONAL AND OTHER HYDROLASES” (priority 2002, published 2008).
Values joined by “and” are separate entries in the source; they are usually repeats but may differ in a detail not shown here. Identical values can stand only once.

What was measured:
trichomonal hydrolases [1] = test: Experiment 17: effect of amount of VLR-MNA on color produced by trichomonal hydrolases on swabs; format: biochemical, Trichomonas vaginalis; settings: 0-9 scale
Procedure: Solution A, containing 10% v/v trichomonal hydrolases and 2 mM L-cysteine, was prepared by mixing 20 μL of trichomonal hydrolases with 4 μl of 100 mM L-cysteine and 176 μL of water, and Solution B, containing 20% v/v trichomonal hydrolases, 5% v/v normal vaginal fluid supernatant and 2 mM L-cysteine, was prepared by mixing 40 μL of trichomonal hydrolases with 10 μL of normal vaginal fluid supernatant, 4 μL of 100 mM L-cysteine and […]. Several 35 μL drops each of Solution A, Solution B, and threonine buffer were individually pipetted onto discrete, separated areas on a sheet of Mylar. Individual cotton swabs were rubbed on a drop of either Solution A or Solution B, then on one, two or three dots of substrate, and then on a drop of buffer. After ten minutes, each swab was rubbed on an indicator film. The intensity of pink color that developed on each swab after thirty seconds was visually scored in 0.5 unit increments using the 0-9 color scale presented in Table 11.1.

trichomonal hydrolases [2] = test: Experiment 14: substrate comparison on swabs with vaginal fluid plus trichomonal hydrolases at low pH; format: biochemical, Trichomonas vaginalis; settings: threonine pH 2.4, 0-9 scale
Procedure: For each pair of vaginal fluid specimens from a donor, one swab was rubbed on one substrate film and the other swab was rubbed on a different substrate film; two substrates were compared at a time. The concentrations of the substrates varied from 150 mM to 320 mM in the solutions used to make the substrate films, but each specific comparison matched equimolar concentrations of substrates (as specified in Tables 14.1, 14.2, and 14.3 below). In the swabs, the substrate was diluted by vaginal fluid and buffer, and the final concentration of substrate in the swab tip was estimated to be 1/60 of the concentration of substrate in the solutions used to make the films. Immediately after each swab was rubbed on a substrate film, a 35-μL drop of threonine buffer was applied to the plastic where the substrate film had been, and the swab was rubbed on the same spot again until the buffer was absorbed into the swab. The swabs were left lying on the plastic for ten minutes, then each swab was rubbed on a Fast Red or Fast Garnet film. For the comparisons between ZLR and ZVR, and between VLR-MNA and ZRRR-MNA, films made with 10 mM Fast Garnet were used; for the comparison between ZVR and VLR-MNA, films made with 70 mM Fast Red were used. The intensity of pink color that developed on each swab after two minutes was visually scored using the 0-9 color scale presented in Table 11.1 above; fractional scores such as 1.3 were used when color intensities between swabs differed only slightly. In this part of the experiment, 20 μL of trichomonal hydrolases was applied to the tip of each swab containing vaginal fluid just prior to running the assay. Otherwise, the procedure was exactly the same as for the swabs containing only vaginal fluid.

[3] = test system: endogenous hydrolases present in normal vaginal fluid; test: Experiment 14: substrate comparison on swabs with normal vaginal fluid at low pH; format: biochemical, human; set-up: key: 0: Colorless or yellow - no pink color; trace: Peach or orange; 1: Faint pink; 2-8: Intermediate intensities of pink; 8: Very intense pink/red; settings: Normal (n = 3); 150 mM substrate film solution; threonine pH 2.4; Fast Red; 0-9 scale
Procedure: Mixtures were made of the 400 mM substrate stock solutions, 25% hydroxy-propylcellulose solution, 200 mM L-cysteine, along with additional ethanol to a final concentration of 150-320 mM substrate, 20 mM L-cysteine, and 2-5% hydroxypropyl-cellulose. Substrate films were made by pipetting 1 μL of a mixture over a circular area approximately […] in diameter on a sheet of Mylar, and drying under a stream of dry nitrogen. The dried films were stored in a container with desiccant until used.
For each pair of vaginal fluid specimens from a donor, one swab was rubbed on one substrate film and the other swab was rubbed on a different substrate film; two substrates were compared at a time. The concentrations of the substrates varied from 150 mM to 320 mM in the solutions used to make the substrate films, but each specific comparison matched equimolar concentrations of substrates (as specified in Tables 14.1, 14.2, and 14.3 below). […] The intensity of pink color that developed on each swab after two minutes was visually scored using the 0-9 color scale presented in Table 11.1 above; fractional scores such as 1.3 were used when color intensities between swabs differed only slightly.

trichomonal hydrolases [4] = test: Experiment 13: hydrolysis of peptide substrates by trichomonal hydrolases at low pH in vaginal fluid supernatant; format: biochemical, Trichomonas vaginalis; set-up: key: −: No red color produced; +: Clearly visible red color produced; ++: Moderately intense red color produced; +++: Very intense red color produced; settings: Fast Garnet
trichomonal hydrolases [5] = test: Experiment 13: hydrolysis of peptide substrates by trichomonal hydrolases at low pH, no vaginal fluid; format: biochemical, Trichomonas vaginalis; set-up: key: −: No red color produced; +: Clearly visible red color produced; ++: Moderately intense red color produced; +++: Very intense red color produced; settings: without vaginal fluid; threonine buffer pH 2.4; 2 mM substrate solution; 10 min 25° C.; Fast Garnet
Procedure, shortened: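 Peptide substrates incubated in duplicate for 10 min at 25° C. with trichomonal hydrolase diluted 1:9 in 2 mM L-cysteine; negative controls received L-cysteine alone. SDS/acetate and Fast Garnet added, and color visually scored after 5 min on a color scale.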

trichomonal hydrolases [6] = test: Experiment 11: hydrolysis of ZRRR-MNA by trichomonal hydrolases at pH 1.9-3.4, read on swab; format: biochemical, Trichomonas vaginalis; settings: Fast Red RL, 0-9 scale
Procedure: The 200 mM ZRRR-MNA solution was mixed with 25% hydroxypropylcellulose solution and additional ethanol to a final concentration of 80 mM ZRRR-MNA and 5% hydroxypropyl-cellulose. Substrate films were made by pipetting 1 μL of a mixture over a circular area approximately ¼-inch in diameter on a sheet of Mylar, and drying under a stream of dry nitrogen. An 80-μL aliquot of a malic acid buffer solution, at each pH listed above, was pipetted into each of eight separate round-bottom wells on a microtiter plate. Eighty μL of 10% trichomonal hydrolase solution was added to each well and mixed thoroughly. Half of the volume in each well (80 μL) was then transferred to a second set of eight wells, into which the swabs were then inserted. After the 80 μL of liquid was absorbed from each well into the respective swab, each swab was rubbed on a substrate film. Ten minutes after the swabs were exposed to substrate, each swab was rubbed on an indicator (Fast Red) film. The intensity of pink color that developed on each swab after one minute was visually scored in 0.5 unit increments using the 0-9 color scale presented in Table 11.1 below. To determine the final pH of the eight mixtures of trichomonal hydrolases and buffer, the pH of the liquid remaining in the first set of eight wells was measured using a pH meter. The experiment was repeated omitting the lowest pH and highest pH wells.

[7] = Hydrolases added (n = 2), 150 mM substrate film solution, Fast Red
[8] = Hydrolases added (n = 5), 200 mM substrate film solution, Fast Garnet

Compound: COc1cc(NC(=O)C(CCCN=C(N)N)NC(=O)C(CC(C)C)NC(=O)C(N)C(C)C)cc2ccccc12 [VLR-MNA, D-Val-Leu-Arg-MNA]
- Color Score (trichomonal hydrolases [1]; Solution A (10% trichomonal hydrolases, no vaginal fluid), One dot of Substrate): 5.5
- Color Score (trichomonal hydrolases [1]; Solution A, Three dots of Substrate): 9
- Color Score (trichomonal hydrolases [1]; Solution A, Two dots of Substrate): 7
- Color Score (trichomonal hydrolases [1]; Solution B (20% trichomonal hydrolases, 5% normal vaginal fluid supernatant), One dot of Substrate): 2.5
- Color Score (trichomonal hydrolases [1]; Solution B, Three dots of Substrate): 5.5
- Color Score (trichomonal hydrolases [1]; Solution B, Two dots of Substrate): 4
- Color Score (trichomonal hydrolases [2]; [7]): 2 to 2.5
- Color Score (trichomonal hydrolases [2]; [8]): 1 to 4
- Color Score [3]: 0
- Color Score (trichomonal hydrolases [4]): +++
- Color Score (trichomonal hydrolases [5]): +++

Compound: COc1cc(NC(=O)[C@H](CCCNC(=N)N)NC(=O)[C@@H](NC(=O)OCc2ccccc2)C(C)C)cc2ccccc12 [ZVR, CBZ-Val-Arg-MNA]
- Color Score (trichomonal hydrolases [2]; [7]): 4.5 to 5
- Color Score (trichomonal hydrolases [2]; Hydrolases added (n = 4), 320 mM substrate film solution, Fast Garnet): 1 to 5
- Color Score [3]: 2.5 to 3
- Color Score (trichomonal hydrolases [4]): ++
- Color Score (trichomonal hydrolases [5]): +++

Compound: CC(=O)O.COc1cc(NC(=O)[C@H](CCCN=C(N)N)NC(=O)[C@H](CCCN=C(N)N)NC(=O)[C@H](CCCN=C(N)N)NC(=O)OCc2ccccc2)cc2ccccc12 [ZRRR-MNA, CBZ-Arg-Arg-Arg-MNA]
- Color Score (trichomonal hydrolases [2]; [8]): 1 to 4
- Color Scores (trichomonal hydrolases [6]; malic acid pH 1.3 / final pH in wells 1.9): 2
- Color Scores (trichomonal hydrolases [6]; malic acid pH 1.6 / final pH 2.1, 1st experiment and duplicate): 4.5
- Color Scores (trichomonal hydrolases [6]; malic acid pH 1.9 / final pH 2.3, 1st experiment and duplicate): 5
- Color Scores (trichomonal hydrolases [6]; malic acid pH 2.2 / final pH 2.4, 1st experiment and duplicate): 5.5 and 6
- Color Scores (trichomonal hydrolases [6]; malic acid pH 2.5 / final pH 2.6, 1st experiment and duplicate): 5.5 and 5
- Color Scores (trichomonal hydrolases [6]; malic acid pH 2.8 / final pH 2.9, 1st experiment and duplicate): 5 and 3.5
- Color Scores (trichomonal hydrolases [6]; malic acid pH 3.1 / final pH 3.2, 1st experiment and duplicate): 4.5 and 3
- Color Scores (trichomonal hydrolases [6]; malic acid pH 3.4 / final pH 3.4): 3
- Color Score (trichomonal hydrolases [4]): ++
- Color Score (trichomonal hydrolases [5]): +++
